Results taken from publication PMC4487512 (Biochemical pharmacology, 2009).
Marks after values point to notes of the source that are not given here.

Legend:
[1] = human, known in vivo clearance values; ref literature (citation not given); cited from earlier work
[2] = system: cryopreserved human hepatocytes; conditions: for Depletion of the parent compound, HμREL device: human hepatocytes under flow, at 24 h; for HμREL clearance CLhurel: flow 4.5 μL/min/chip, 30,000 hepatocytes per chamber, 100 μL
[3] = system: cryopreserved human hepatocytes; conditions: at 24 h

Row | SMILES | In vivo clearance [1] | Depletion of the parent compound, HμREL device [2] | Depletion of the parent compound, static culture system [3] | HμREL clearance CLhurel [2]
1 | NC(=O)N1c2ccccc2C=Cc2ccccc21 [Carbamazepine, carbamazepine] | 1.3 ± 0.5 mL/min/kg | did not show significant depletion | did not show significant depletion | 
2 | O=C1CC2(CCCC2)CC(=O)N1CCCCN1CCN(c2ncccn2)CC1 [Buspirone, buspirone] |  |  |  | 3.13 μL/min/chip
3 | CC(C)(C)NC[C@H](O)COc1nsnc1N1CCOCC1 [Timolol, timolol] | 7.7 ± 1.2 mL/min/kg |  |  | 0.35 μL/min/chip
4 | CCCc1nn(C)c2c(=O)[nH]c(-c3cc(S(=O)(=O)N4CCN(C)CC4)ccc3OCC)nc12 [Sildenafil, sildenafil] | 6.0 ± 1.1 mL/min/kg |  |  | 1.13 μL/min/chip
5 | Cn1c(=O)c2c(ncn2C)n(C)c1=O [Caffeine, caffeine] |  | did not show significant depletion | did not show significant depletion | 0.01^a μL/min/chip
